Data reported in patent US8071797B2 (priority 2008, dated 2011).

target: T1, HCV polymerase (NS5B570n-Con1) (Hepatitis C virus genotype 1b, UniProt Q9WMX2); assay: HCV NS5B RNA polymerase activity assay; type: biochemical, HCV Con1 strain; settings: IC50 NS5B polymerase assay, Table I
T1 construct: contains a 21 amino acid deletion at the C-terminus relative to the full-length HCV polymerase; 6-histidine (N); made in house; host or cells: E. coli BL21 (DE) pLysS
Protocol: The enzymatic activity of HCV polymerase (NS5B570n-Con1) was measured as the incorporation of radiolabeled nucleotide monophosphates into acid insoluble RNA products. Unincorporated radiolabeled substrate was removed by filtration and scintillant was added to the washed and dried filter plate containing radiolabeled RNA product. The amount of RNA product generated by NS5B570-Con1 at the end of the reaction was directly proportional to the amount of light emitted by the scintillant.
The N-terminal 6-histidine tagged HCV polymerase, derived from HCV Con1 strain, genotype 1b (NS5B570n-Con1) contains a 21 amino acid deletion at the C-terminus relative to the full-length HCV polymerase and was purified from E. coli strain BL21 (DE) pLysS. The construct, containing the coding sequence of HCV NS5B Con1 (GenBank accession number AJ242654) was inserted into the plasmid construct pETI 7b, downstream of a T7 promoter expression cassette and transformed into E. coli. A single colony was grown overnight as a starter culture and later used inoculate 10 L of LB media supplemented with 100 μg/mL ampicillin at 37° C. Protein expression was induced by the addition of 0.25 mM isopropyl-β-D-thiogalactopyranoside (IPTG) when optical density at […] of the culture was between 0.6 and 0.8 and cells were harvested after 16 to 18 h at 30° C. NS5B570n-Con1 was purified to homogeneity using a three-step protocol including subsequent column chromatography on Ni-NTA, SP-Sepharose HP and Superdex 75 resins.
Each 50 μl enzymatic reaction contained 20 nM RNA template derived from the complementary sequence of the Internal Ribosome Entry Site (cIRES), 20 nM NS5B570n-Con1 enzyme, 0.5 μCi of tritiated UTP (Perkin Elmer catalog no. TRK-412; specific activity: 30 to 60 Ci/mmol; stock solution concentration from 7.5×10^-5 M to 20.6×10^-6 M), 1 μM each ATP, CTP, and GTP, 40 mM Tris-HCl pH 8.0, 40 mM NaCl, 4 mM DTT (dithiothreitol), 4 mM MgCl2, and 5 μl of compound serial diluted in DMSO. Reaction mixtures were assembled in 96-well filter plates (cat #MADVN0B, Millipore Co.) and incubated for 2 h at 30° C. Reactions were stopped by addition of 10% final (v/v) trichloroacetic acid and incubated for 40 min at 4° C. Reactions were filtered, washed with 8 reaction volumes of 10% (v/v) trichloroacetic acetic acid, 4 reaction volumes of 70% (v/v) ethanol, air dried, and 25 μl of scintillant (Microscint 20, Perkin-Elmer) was added to each reaction well.
The amount of light emitted from the scintillant was converted to counts per minute (CPM) on a Topcount® plate reader (Perkin-Elmer, Energy Range: Low, Efficiency Mode Normal, Count Time: 1 min, Background Subtract: none, Cross talk reduction: Off).
Data was analyzed in Excel® (Microsoft®) and ActivityBase® (idbsg). The reaction in the absence of enzyme was used to determine the background signal, which was subtracted from the enzymatic reactions. Positive control reactions were performed in the absence of compound, from which the background corrected activity was set as 100% polymerase activity. All data was expressed as a percentage of the positive control. The compound concentration at which the enzyme-catalyzed rate of RNA synthesis was reduced by 50% (IC50) was calculated by fitting
[formula] equation (t) to the data.where “Y” corresponds to the relative enzyme activity (in %), “% Min” is the residual relative activity at saturating compound concentration, “% Max” is the relative maximum enzymatic activity, “X” corresponds to the compound concentration, and “S” is the Hill coefficient (or slope).

| Structure (SMILES) | IC50 |
| --- | --- |
| CNC(=O)c1c(-c2ccc(Nc3ccc(F)cc3)cc2)oc2cc(N(CCO)S(C)(=O)=O)c(OC)cc12 [Compound I-2] | 100 nM |
| CNC(=O)c1c(-c2ccc(Nc3ccc(Cl)cc3)cc2)oc2cc(N(CCO)S(C)(=O)=O)c(OC)cc12 [Compound I-3] | 214 nM |
| CNC(=O)c1c(-c2ccc(Oc3ccccc3)cc2)oc2cc(N(CCO)S(C)(=O)=O)c(OC)cc12 [Compound I-4, 6-[(2-Hydroxy-ethyl)-methanesulfonyl-amino]-5-methoxy-2-(4-phenoxy-phenyl)-benzofuran-3-carboxylic acid methylamide] | 62 nM |
| CNC(=O)c1c(-c2ccc(Nc3ccccc3F)cc2)oc2cc(N(CCO)S(C)(=O)=O)c(OC)cc12 [Compound I-5] | 34 nM |
| CNC(=O)c1c(-c2ccc(Nc3cccc(OC)c3)cc2)oc2cc(N(CCO)S(C)(=O)=O)c(OC)cc12 [Compound I-7] | 136 nM |
| CNC(=O)c1c(-c2ccc(Oc3ccc(F)cc3)cc2)oc2cc(N(CCO)S(C)(=O)=O)c(OC)cc12 [Compound I-8] | 57 nM |
| CNC(=O)c1c(-c2ccc(Oc3ccccc3F)cc2)oc2cc(N(CCO)S(C)(=O)=O)c(OC)cc12 [Compound I-9] | 85 nM |
| CNC(=O)c1c(-c2ccc(Nc3ccc(F)c(F)c3)cc2)oc2cc(N(CCO)S(C)(=O)=O)c(OC)cc12 [Compound I-10] | 65 nM |
| CNC(=O)c1c(-c2ccc(Nc3ccc(C(F)(F)F)cc3)cc2)oc2cc(N(CCO)S(C)(=O)=O)c(OC)cc12 [Compound I-11] | 1950 nM |
| CNC(=O)c1c(-c2ccc(Nc3cccc(C#N)c3)cc2)oc2cc(N(CCO)S(C)(=O)=O)c(OC)cc12 [Compound I-12] | 298 nM |
| CNC(=O)c1c(-c2ccc(Nc3ccc(C#N)cc3)cc2)oc2cc(N(CCO)S(C)(=O)=O)c(OC)cc12 [Compound I-13] | 1840 nM |
| CNC(=O)c1c(-c2ccc(Nc3ccc(F)cc3F)cc2)oc2cc(N(CCO)S(C)(=O)=O)c(OC)cc12 [Compound I-14] | 24 nM |
| CNC(=O)c1c(-c2ccc(Nc3ccc(F)c(Cl)c3)cc2)oc2cc(N(CCO)S(C)(=O)=O)c(OC)cc12 [Compound I-15] | 82 nM |
| CNC(=O)c1c(-c2ccc(Nc3cc(F)cc(F)c3)cc2)oc2cc(N(CCO)S(C)(=O)=O)c(OC)cc12 [Compound I-16] | 172 nM |
| CCN(c1cc2oc(-c3ccc(Nc4ccc(F)cc4)cc3)c(C(=O)NC)c2cc1OC)S(C)(=O)=O [Compound I-17] | 81 nM |
| CCN(c1cc2oc(-c3ccc(Nc4ccccc4F)cc3)c(C(=O)NC)c2cc1OC)S(C)(=O)=O [Compound I-18] | 5 nM |
| CNC(=O)c1c(-c2ccc(Nc3ccc(C)cc3)cc2)oc2cc(N(CCO)S(C)(=O)=O)c(OC)cc12 [Compound I-20] | 92 nM |
| CNC(=O)c1c(-c2ccc(Nc3cccc(F)c3F)cc2)oc2cc(N(CCO)S(C)(=O)=O)c(OC)cc12 [Compound I-21] | 59 nM |
| CNC(=O)c1c(-c2ccc(Oc3cccc(F)c3F)cc2)oc2cc(N(CCO)S(C)(=O)=O)c(OC)cc12 [Compound I-22] | 55 nM |
| CCN(c1cc2oc(-c3ccc(Oc4ccccc4F)cc3)c(C(=O)NC)c2cc1OC)S(C)(=O)=O [Compound I-23] | 52 nM |
| CCN(c1cc2oc(-c3ccc(Oc4ccc(F)cc4)cc3)c(C(=O)NC)c2cc1OC)S(C)(=O)=O [Compound I-24] | 130 nM |
| CNC(=O)c1c(-c2ccc(Nc3c(F)cccc3F)cc2)oc2cc(N(CCO)S(C)(=O)=O)c(OC)cc12 [Compound I-25] | 123 nM |
| CNC(=O)c1c(-c2ccc(Oc3cccc(F)c3)cc2)oc2cc(N(CCO)S(C)(=O)=O)c(OC(C)C)cc12 [Compound I-26] | 82 nM |

| Structure (SMILES) | IC50 |
| --- | --- |
| CNC(=O)c1c(-c2ccc(Oc3ccc(Cl)cc3)cc2)oc2cc(N(CCO)S(C)(=O)=O)c(OC(C)C)cc12 [Compound I-27] | 70 nM |
| CNC(=O)c1c(-c2ccc(Nc3ccccc3)cc2)oc2cc(N(CCO)S(C)(=O)=O)c(OC(C)C)cc12 [Compound I-28, 6-[(2-Hydroxy-ethyl)-methanesulfonyl-amino]-5-isopropoxy-2-(4-phenylamino-phenyl)-benzofuran-3-carboxylic acid methylamide] | 42 nM |
| CNC(=O)c1c(-c2ccc(Nc3cccc(F)c3)cc2)oc2cc(N(CCO)S(C)(=O)=O)c(OC(C)C)cc12 [Compound I-29] | 94 nM |
| CNC(=O)c1c(-c2ccc(Nc3ccc(Cl)cc3)cc2)oc2cc(N(CCO)S(C)(=O)=O)c(OC(C)C)cc12 [Compound I-30] | 815 nM |
| CNC(=O)c1c(-c2ccc(Nc3ccc(F)cc3)cc2)oc2cc(N(CCO)S(C)(=O)=O)c(OC(C)C)cc12 [Compound I-31] | 92 nM |
| CNC(=O)c1c(-c2ccc(Nc3ccccc3F)cc2)oc2cc(N(CCO)S(C)(=O)=O)c(OC(C)C)cc12 [Compound I-34] | 64 nM |
| CNC(=O)c1c(-c2ccc(Oc3ccc(F)cc3)cc2)oc2cc(N(C)S(C)(=O)=O)c(OC)cc12 [Compound I-35] | 51 nM |
| CNC(=O)c1c(-c2ccc(Oc3ccccc3F)cc2)oc2cc(N(C)S(C)(=O)=O)c(OC)cc12 [Compound I-36] | 48 nM |
| CNC(=O)c1c(-c2ccc(Oc3cccc(Cl)c3)cc2)oc2cc(N(CCO)S(C)(=O)=O)c(OC)cc12 [Compound I-38] | 50 nM |
| CNC(=O)c1c(-c2ccc(Oc3ccc(F)cc3F)cc2)oc2cc(N(CCO)S(C)(=O)=O)c(OC(C)C)cc12 [Compound I-39] | 195 nM |
| CCN(c1cc2oc(-c3ccc(Oc4ccc(F)cc4)cc3)c(C(=O)NC)c2cc1C1CC1)S(C)(=O)=O [Compound I-42] | 143 nM |
| CNC(=O)c1c(-c2ccc(Oc3ccc(F)cc3)cc2)oc2cc(NS(C)(=O)=O)c(OC)cc12 [Compound I-43] | 238 nM |
| CNC(=O)c1c(-c2ccc(Oc3ccccc3Cl)cc2)oc2cc(N(CCO)S(C)(=O)=O)c(OC)cc12 [Compound I-44] | 82 nM |
| CNC(=O)c1c(-c2ccc(Oc3ccc(F)c(F)c3)cc2)oc2cc(N(CCO)S(C)(=O)=O)c(OC)cc12 [Compound I-45] | 48 nM |
| CNC(=O)c1c(-c2ccc(Oc3cccc(Cl)c3)cc2)oc2cc(N(CCO)S(C)(=O)=O)c(OC(C)C)cc12 [Compound I-46] | 51 nM |
| CNC(=O)c1c(-c2ccc(Oc3cccc(C#N)c3)cc2)oc2cc(N(CCO)S(C)(=O)=O)c(OC)cc12 [Compound I-47] | 338 nM |
| CNC(=O)c1c(-c2ccc(Oc3ccc(C#N)cc3)cc2)oc2cc(N(CCO)S(C)(=O)=O)c(OC)cc12 [Compound I-48] | 1070 nM |
| CNC(=O)c1c(-c2ccc(Oc3ccccc3Cl)cc2)oc2cc(N(CCO)S(C)(=O)=O)c(OC(C)C)cc12 [Compound I-49] | 143 nM |
| CNC(=O)c1c(-c2ccc(Oc3ccc(F)c(F)c3)cc2)oc2cc(N(CCO)S(C)(=O)=O)c(OC(C)C)cc12 [Compound I-50] | 261 nM |
| CCc1cc2c(C(=O)NC)c(-c3ccc(Oc4ccc(F)cc4)cc3)oc2cc1N(CCO)S(C)(=O)=O [Compound I-51, 5-Ethyl-2-[4-(4-fluoro-phenoxy)-phenyl]-6-[(2-hydroxy-ethyl)-methanesulfonyl-amino]-benzofuran-3-carboxylic acid methylamide] | 88 nM |
| CCc1cc2c(C(=O)NC)c(-c3ccc(Oc4ccc(F)cc4)cc3)oc2cc1N(C)S(C)(=O)=O [Compound I-52] | 128 nM |
| CNC(=O)c1c(-c2ccc(Oc3ccc(F)cc3)cc2)oc2cc(N(CCN)S(C)(=O)=O)c(OC)cc12 [Compound I-53] | 250 nM |
